Publication PMC7918798, “Coumarins from Seseli devenyense Simonk.: Isolation by Liquid–Liquid Chromatography and Potential Anxiolytic Activity Using an In Vivo Zebrafish Larvae Model” (International Journal of Molecular Sciences, 2021)
Entries after “also recorded” stand apart in the source; their conditions may differ.

Tests used:
[1] = Shake-flask partition coefficient in HEMWat biphasic solvent systems; assay type: physicochemical
Experimental: The screening for suitable biphasic solvent systems to isolate the target coumarins from Seseli devenyense methanolic fruit extract (SDMFE) was performed by shake-flask experiments. The partition coefficient (Pi), defined as the ratio of the concentration of a solute in the stationary phase to its concentration in the mobile phase, was used as the screening parameter. The experimental protocol was previously descried by Widelski et al. (2018). Briefly, 1 mg of crude extract was dissolved in 4 mL of biphasic solvent systems obtained by mixing various volumes of hexane, ethyl acetate, methanol and water (HEMWat). After vigorous shaking, the flasks were left until the complete separation of the layers. Then, equal volumes of the upper and lower phase (0.5 mL) were taken, evaporated to dryness, dissolved again in methanol (1.0 mL) and analyzed by HPLC-DAD analysis, as descried below.
The preliminary analysis of the SDMFE, determination of the partition coefficient values and purity of collected fractions were assessed by HPLC-DAD. The HPLC-DAD analyses were performed on a Shimadzu HPLC (Shimadzu, Tokyo, Japan) equipped with automatic degasser (DGU-20A3R), quaternary pump (LC-20AD), auto-sampler (SIL-20AHT) and diode array detector (SPD-M20A). The separations were carried out on an Agilent Zorbax Eclipse XDB-C18 (Agilent, Santa Clara, CA, USA) (250 mm × 4.6 mm, 5 μm) column with a mobile phase consisting of water (solvent A) and methanol (solvent B). The following gradient was applied: 0 min: 50% B; 5 min: 60% B; 25 min: 80% B; 30–35 min: 100% B. The flow-rate was 1 mL/min; the column temperature was set at 25 °C. The injection volume of sample was 10 μL and detection was carried out at 320 nm.

[2] = test system: 5-dpf zebrafish larvae; assay: Zebrafish larvae light/dark transition challenge: locomotor activity and thigmotaxis (anxiolytic activity assay, Phase 2); assay type: in vivo, Danio rerio; settings: for distance moved by the larvae in the central arena / time spent in the central area: dark phase vs light phase, concentration not stated
Experimental: (§1) The research protocol was adopted after Schnorr et al. (2012). The anxiolytic activity was evaluated in 24-well plates. The inner and outer zones of the well were delineated according to Schnorr et al. (2012). […] It could be also described as decreasing thigmotaxis. 1% DMSO in E3 solution was used as the negative control, 10 μM diazepam was used as the positive control. 32 larvae were used for each concentration.
(§2) The experimental procedure was divided into three stages: • (a) Preincubation: larvae were pre-incubated in a 1500 μL solution of tested compounds in individual wells of a 24-well plate at 28.5 °C, in dark, for 30 min. • (b) Acclimatization (min 0–10): plates were placed in an automated video recording bench station (ViewPoint, Lyon, France). Larvae were allowed to acclimatize to the test apparatus for 10 min. During this period, lights were kept on. • (c) Visual motor challenge (min 11–95): this stage experiment was divided into two phases: Phase 1—continuous illumination: larvae were subjected to continuous light for 40 min, with the purpose to determine the spontaneous locomotor activity and thigmotaxis behavior (before applying the factor causing the anxiety). Phase 2—light/dark transition: larvae were subjected to three cycles, each involving the 10-min lighting phase (continuous light) and the 5-min dark phase (anxiogenic factor).

[3] = test system: 5-dpf zebrafish larvae; assay: Zebrafish larvae 40 min continuous illumination: spontaneous locomotor activity and thigmotaxis (Phase 1); assay type: in vivo, Danio rerio; settings: for spontaneous locomotor activity (average distance moved): 40 min continuous illumination
Experimental: as §1, §2

[4] = solvent system I, hexane/ethyl acetate/methanol/water 2/5/2/5 (v/v/v/v)
[5] = dark phase vs DMSO-treated group in dark phase, 1.5 μM
[6] = dark phase vs DMSO-treated group in dark phase, 9 μM
[7] = dark phase vs DMSO-treated group in dark phase, 12.5 μM
[8] = dark phase vs DMSO-treated group in dark phase, 25 μM
[9] = dark phase vs light phase within same group, 1.5 μM
[10] = dark phase vs light phase within same group, 3 μM
[11] = dark phase vs light phase within same group, 6 μM
[12] = dark phase vs light phase within same group, 9 μM
[13] = dark phase vs light phase within same group, 12.5 μM
[14] = dark phase vs light phase within same group, 25 μM
[15] = dark phase vs DMSO-treated group in dark phase, 50 μM
[16] = dark phase vs light phase within same group, 50 μM
[17] = light phase vs DMSO-treated group in light phase, 12.5 μM
[18] = light phase vs DMSO-treated group in light phase, 25 μM
[19] = light phase vs DMSO-treated group in light phase, 50 μM
[20] = dark phase vs DMSO-treated group in dark phase, 6 μM
[21] = dark phase vs DMSO-treated group in dark phase, 15 μM
[22] = dark phase vs light phase within same group, 15 μM
[23] = dark phase vs DMSO-treated group in dark phase, diazepam 10 μM
[24] = dark phase vs light phase within same group, diazepam 10 μM
[25] = light phase vs DMSO-treated group in light phase, diazepam 10 μM
[26] = 40 min continuous illumination vs DMSO-treated control group, diazepam 10 µM

Compound: CC1(C)Oc2ccc3ccc(=O)oc3c2[C@H](O)[C@@H]1O [cis-khellactone]
- Partition Coefficients (Pi) [1, 4]: 2.50
- percentage of time spent in central area [2, 5]: significant increases
- percentage of time spent in central area ([2]; dark phase vs DMSO-treated group in dark phase, 3 μM): significant increases
- percentage of time spent in central area [2, 6]: significant increases
- percentage of time spent in central area [2, 7]: significant increases
- percentage of time spent in central area [2, 8]: significant increases
- percentage of distance moved in central area ([2]; dark phase vs DMSO-treated group in dark phase, all tested concentrations (1.5, 3, 6, 9, 12.5, 25 μM)): not observed
- locomotor activity (average distance moved per 1-min time bin) [2, 9]: increase
- percentage of distance moved in central area [2, 9]: increase
- percentage of time spent in central area [2, 9]: increase
- locomotor activity (average distance moved per 1-min time bin) [2, 10]: increase
- percentage of time spent in central area [2, 10]: increase
- locomotor activity (average distance moved per 1-min time bin) [2, 11]: increase
- percentage of distance moved in central area [2, 11]: increase
- locomotor activity (average distance moved per 1-min time bin) [2, 12]: increase
- percentage of distance moved in central area [2, 12]: increase
- locomotor activity (average distance moved per 1-min time bin) [2, 13]: increase
- percentage of distance moved in central area [2, 13]: increase
- percentage of time spent in central area [2, 13]: increase
- locomotor activity (average distance moved per 1-min time bin) [2, 14]: increase
- percentage of distance moved in central area [2, 14]: increase
- percentage of time spent in central area [2, 14]: increase
- percentage of time spent in central area ([2]; light phase vs DMSO-treated group in light phase, 6 μM): significant increase
- percentage of time spent in central area ([2]; light phase vs DMSO-treated group in light phase, 9 μM): significant increase
- locomotor activity (average distance moved per 1-min time bin) ([2]; light phase vs DMSO-treated group in light phase, all tested concentrations (1.5, 3, 6, 9, 12.5, 25 μM)): not noticed
- anxiolytic activity (authors' overall statement) ([2]; zebrafish larvae model): weakest activity
- spontaneous locomotor activity (average distance moved) ([3]; all tested concentrations (1.5, 3, 6, 9, 12.5, 25 µM)): has not influenced
- time spent in the central arena ([3]; 40 min continuous light, one-way ANOVA between tested groups, 1.5, 3, 6, 9, 12.5, 25 µM): not showed

Compound: C/C=C(/C)C(=O)O[C@H]1c2c(ccc3ccc(=O)oc23)OC(C)(C)[C@H]1O [d-laserpitin]
- Partition Coefficients (Pi) ([1]; solvent system II, hexane/ethyl acetate/methanol/water 6/5/6/5 (v/v/v/v)): 0.84
- locomotor activity (average distance moved per 1-min time bin) [2, 7]: significant decreases
- percentage of distance moved in central area [2, 7]: significant increases
- percentage of time spent in central area [2, 7]: significant increases
- locomotor activity (average distance moved per 1-min time bin) [2, 8]: significant decreases
- percentage of distance moved in central area [2, 8]: significant increases
- percentage of time spent in central area [2, 8]: significant increases
- locomotor activity (average distance moved per 1-min time bin) [2, 15]: significant decreases
- percentage of distance moved in central area [2, 15]: significant increases
- percentage of time spent in central area [2, 15]: significant increases
- percentage of distance moved in central area [2, 13]: increase
- locomotor activity (average distance moved per 1-min time bin) [2, 14]: increase
- percentage of distance moved in central area [2, 14]: increase
- percentage of time spent in central area [2, 14]: increase
- locomotor activity (average distance moved per 1-min time bin) [2, 16]: increase
- percentage of distance moved in central area [2, 16]: increase
- percentage of time spent in central area [2, 16]: increase
- distance moved by the larvae in the central arena [2]: significantly increased
- time spent in the central area [2]: significantly increased
- percentage of distance moved in central area [2, 17]: decreased
- percentage of time spent in central area [2, 17]: significant increase
- percentage of distance moved in central area [2, 18]: significant increase
- percentage of time spent in central area [2, 18]: significant increase
- percentage of distance moved in central area [2, 19]: significant increase
- percentage of time spent in central area [2, 19]: significant increase
- spontaneous locomotor activity (average distance moved) ([3]; all concentrations (12.5, 25, 50 µM)): has not influe nced

Compound: CC(C)(O)C(O)Cc1c(O)ccc2ccc(=O)oc12 (stereo not drawn) [devenyol]
- Partition Coefficients (Pi) [1, 4]: 0.80
- anxiolytic activity (authors' overall statement) ([2]; concentrations of 1.5, 6, 9 and 15 μM): active
- locomotor activity (average distance moved per 1-min time bin) [2, 5]: decreases
- percentage of distance moved in central area [2, 5]: significant increases
- percentage of time spent in central area [2, 5]: significant increase
- percentage of distance moved in central area [2, 20]: significant increases
- percentage of time spent in central area [2, 20]: significant increase
- percentage of distance moved in central area [2, 6]: significant increases
- percentage of time spent in central area [2, 6]: significant increase
- percentage of distance moved in central area [2, 21]: significant increases
- percentage of time spent in central area [2, 21]: significant increase
- locomotor activity (average distance moved per 1-min time bin) [2, 9]: significant increases
- percentage of distance moved in central area [2, 9]: increase
- locomotor activity (average distance moved per 1-min time bin) [2, 10]: significant increases
- percentage of distance moved in central area [2, 10]: increase
- locomotor activity (average distance moved per 1-min time bin) [2, 11]: significant increases
- percentage of distance moved in central area [2, 11]: increase
- locomotor activity (average distance moved per 1-min time bin) [2, 12]: significant increases
- percentage of distance moved in central area [2, 12]: increase
- locomotor activity (average distance moved per 1-min time bin) [2, 22]: significant increases
- percentage of distance moved in central area [2, 22]: increase
- percentage of time spent in central area ([2]; dark phase vs light phase within same group, all concentrations (1.5, 3, 6, 9, 15 μM)): increase
- distance moved by the larvae in the central arena [2]: significantly increased
- time spent in the central area [2]: significantly increased
- spontaneous locomotor activity (average distance moved) ([3]; all concentrations (1.5, 3, 6, 9, 15 µM)): has not influenced

Compound: CN1C(=O)CN=C(c2ccccc2)c2cc(Cl)ccc21 [diazepam, reference compound]
- locomotor activity (average distance moved per 1-min time bin) [2, 23]: significant decreases; also recorded: decrease
- percentage of distance moved in central area [2, 23]: significant increases
- percentage of time spent in central area [2, 23]: significant increases
- percentage of distance moved in central area [2, 24]: increase
- percentage of time spent in central area [2, 24]: increase
- distance moved by the larvae in the central arena [2]: significantly increased
- time spent in the central area [2]: significantly increased
- percentage of distance moved in central area [2, 25]: significant increase
- percentage of time spent in central area [2, 25]: significant increase
- percentage of distance moved in the central arena [3, 26]: increased
- percentage of time spent in the central arena [3, 26]: increase
